# Results reported in paper PMC10272112 (Nature Communications, 2023).
# Where “and” joins values, the source holds several entries; their conditions need not be identical. Equal entries are not always repeated.
# Legend:
# HDAC3/NcoR2 complex = biological target: T1, HDAC3/NcoR2 complex (Homo sapiens, UniProt O15379); assay: HDAC-Glo assay; type: biochemical; conditions: read-out: log EC50 from dose-dependent HDAC inhibition curves (converted)
# T1 construct: purchased BPS Bioscience 50003
# Procedure: (§1) To validate the inhibition of HDACs by LA and LM and elaborate on the structure-activity relationship (SAR) of enantiomers as well as oxidized versus reduced forms of the molecules, we performed enzyme activity assays for recombinant HDAC1,2,3,6,8 as well as FRET-based binding assay for recombinant HDAC10.
# (§2) The experiments were performed according to ref. [48]. […] Drug dosing was performed with a D300e Digital Dispenser (Tecan). HDACs (7 ng/mL for HDAC1, 25 ng/mL for HDAC2, 200 ng/mL for HDAC3/Ncor2 complex, 100 ng/mL for HDAC6, 200 ng/mL for HDAC8) and inhibitors were incubated together at room temperature (RT) for 30 min. After the addition of the HDAC-Glo™ I/II reagent, plates were shaken (800 rpm orbital shaker, 30 s), centrifuged (300 g, 1 min), and incubated at RT for 30 min. Luminescence was detected with a CLARIOstar (BMG Labtech) plate reader.
# HDAC1 = HDAC1 (Homo sapiens, UniProt Q13547); assay: HDAC-Glo assay; type: biochemical; parameters: purchased BPS Bioscience 50051; conditions: for raw luminescence signal, HDAC1 inhibition: 0.5 M TCEP
# Chain of HDAC1 (Q13547 whole entry): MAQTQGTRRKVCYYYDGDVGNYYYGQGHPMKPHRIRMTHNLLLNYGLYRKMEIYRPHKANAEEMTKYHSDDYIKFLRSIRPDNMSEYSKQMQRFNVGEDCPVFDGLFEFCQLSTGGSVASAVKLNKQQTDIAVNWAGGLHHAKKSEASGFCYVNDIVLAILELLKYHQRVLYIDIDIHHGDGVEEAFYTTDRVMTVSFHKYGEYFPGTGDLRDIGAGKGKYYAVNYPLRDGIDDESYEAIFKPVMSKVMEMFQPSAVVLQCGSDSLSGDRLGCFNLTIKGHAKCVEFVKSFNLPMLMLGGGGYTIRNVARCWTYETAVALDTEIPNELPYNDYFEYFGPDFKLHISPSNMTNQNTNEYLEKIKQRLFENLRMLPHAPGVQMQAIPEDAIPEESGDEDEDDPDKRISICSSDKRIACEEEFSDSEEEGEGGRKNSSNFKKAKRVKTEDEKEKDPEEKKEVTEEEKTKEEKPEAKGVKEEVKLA
# Procedure: as §1, §2
# HDAC8 = biological target: T2, HDAC8 (Homo sapiens, UniProt Q9BY41); assay: HDAC-Glo assay; type: biochemical; parameters: purchased BPS Bioscience 50008; conditions: read-out: log EC50 from dose-dependent HDAC inhibition curves (converted)
# T2 sequence (Q9BY41 1-377): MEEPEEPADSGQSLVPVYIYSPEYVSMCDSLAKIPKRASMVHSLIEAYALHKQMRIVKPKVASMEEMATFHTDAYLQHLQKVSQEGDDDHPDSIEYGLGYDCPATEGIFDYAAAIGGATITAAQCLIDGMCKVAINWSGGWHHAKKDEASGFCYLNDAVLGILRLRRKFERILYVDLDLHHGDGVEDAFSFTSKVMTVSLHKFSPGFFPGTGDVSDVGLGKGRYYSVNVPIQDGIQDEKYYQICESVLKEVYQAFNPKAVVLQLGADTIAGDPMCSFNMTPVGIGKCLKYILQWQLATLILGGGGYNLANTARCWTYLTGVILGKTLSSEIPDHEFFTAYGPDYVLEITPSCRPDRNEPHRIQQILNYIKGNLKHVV
# Procedure: as §1, §2
# HDAC6 = biological target: T3, HDAC6 (Homo sapiens, UniProt Q9UBN7); assay: HDAC-Glo assay; type: biochemical; parameters: purchased BPS Bioscience 50006; conditions: read-out: log EC50 from dose-dependent HDAC inhibition curves (converted)
# T3 sequence (Q9UBN7 1-1215): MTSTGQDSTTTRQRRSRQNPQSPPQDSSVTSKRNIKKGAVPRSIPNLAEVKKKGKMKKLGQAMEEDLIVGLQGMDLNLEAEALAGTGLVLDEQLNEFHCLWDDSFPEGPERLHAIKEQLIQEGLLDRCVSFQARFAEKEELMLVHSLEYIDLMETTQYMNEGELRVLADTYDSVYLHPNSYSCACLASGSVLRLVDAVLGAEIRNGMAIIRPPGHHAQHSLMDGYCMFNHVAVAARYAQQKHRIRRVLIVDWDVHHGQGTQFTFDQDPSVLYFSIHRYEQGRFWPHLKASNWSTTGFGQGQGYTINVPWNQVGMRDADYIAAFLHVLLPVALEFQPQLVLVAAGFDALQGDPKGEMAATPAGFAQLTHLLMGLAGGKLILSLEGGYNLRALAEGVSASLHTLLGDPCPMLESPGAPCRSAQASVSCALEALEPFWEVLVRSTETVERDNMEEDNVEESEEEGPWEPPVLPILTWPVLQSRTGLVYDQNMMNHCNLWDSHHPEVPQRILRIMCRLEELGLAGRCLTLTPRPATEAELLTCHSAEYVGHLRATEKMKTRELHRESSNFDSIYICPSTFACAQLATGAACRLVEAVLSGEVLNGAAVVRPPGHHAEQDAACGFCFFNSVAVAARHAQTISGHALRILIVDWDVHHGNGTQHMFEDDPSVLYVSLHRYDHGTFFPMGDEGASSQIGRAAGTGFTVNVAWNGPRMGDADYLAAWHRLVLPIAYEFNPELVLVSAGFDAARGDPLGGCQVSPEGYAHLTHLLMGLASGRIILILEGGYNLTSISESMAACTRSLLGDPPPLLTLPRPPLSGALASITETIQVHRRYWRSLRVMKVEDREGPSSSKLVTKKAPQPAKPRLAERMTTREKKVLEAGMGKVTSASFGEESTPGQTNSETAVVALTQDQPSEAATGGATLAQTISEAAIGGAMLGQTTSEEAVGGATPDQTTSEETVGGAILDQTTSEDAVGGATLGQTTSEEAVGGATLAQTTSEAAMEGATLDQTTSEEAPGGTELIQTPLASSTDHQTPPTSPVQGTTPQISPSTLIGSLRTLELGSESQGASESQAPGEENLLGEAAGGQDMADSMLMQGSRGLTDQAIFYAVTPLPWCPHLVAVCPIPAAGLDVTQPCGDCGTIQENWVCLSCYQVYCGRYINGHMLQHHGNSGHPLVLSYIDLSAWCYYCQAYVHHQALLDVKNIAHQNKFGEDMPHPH
# Procedure: as §1, §2
# HDAC2 = HDAC2 (Homo sapiens, UniProt Q92769); assay: HDAC-Glo assay; type: biochemical; parameters: purchased BPS Bioscience 50002; conditions: read-out: log EC50 from dose-dependent HDAC inhibition curves (converted)
# Chain of HDAC2 (Q92769 whole entry): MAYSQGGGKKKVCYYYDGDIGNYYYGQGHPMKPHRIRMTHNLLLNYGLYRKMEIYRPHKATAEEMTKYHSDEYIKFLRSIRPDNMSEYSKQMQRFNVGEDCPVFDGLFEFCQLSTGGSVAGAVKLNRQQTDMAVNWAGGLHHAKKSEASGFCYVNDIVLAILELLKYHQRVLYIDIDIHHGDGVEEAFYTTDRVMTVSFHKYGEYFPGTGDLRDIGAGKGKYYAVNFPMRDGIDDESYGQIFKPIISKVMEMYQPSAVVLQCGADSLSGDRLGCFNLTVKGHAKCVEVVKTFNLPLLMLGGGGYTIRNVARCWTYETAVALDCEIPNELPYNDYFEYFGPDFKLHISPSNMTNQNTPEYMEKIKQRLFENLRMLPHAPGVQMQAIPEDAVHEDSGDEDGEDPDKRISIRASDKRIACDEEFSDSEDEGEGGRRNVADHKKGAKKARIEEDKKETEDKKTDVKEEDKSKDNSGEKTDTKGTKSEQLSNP
# Procedure: as §1, §2
# α-Tubulin AcK40 = assay: α-tubulin acetylation detection by western blot, CBP-HA transfected HEK293T; type: cell-based; conditions: HEK293T, ACY-738 5 µM
# Procedure: (§3) 0.2 × 10^6 HEK293T (ATCC: CRL-3216) cells were transfected with pcDNA 3.1-HA CBP plasmids (1 μg/well for the 6-well plate) by FuGENE. After 2 days, cells were treated with ACY-738, lipoic acid, and lipoamide for 7 h, then were washed by ice-cold PBS and lysed in Triton lysis buffer (50 mM Tris, pH 8.0, 150 mM NaCl, 1 mM EDTA, 0.1% TritonX-100 and complete EDTA-free protease inhibitors (Roche)) for analysis. To detect protein acetylation, 0.2 μM Trichostatin A and 5 mM nicotinamide were added to PBS for washing, and 10 μM trichostatin A, 10 mM nicotinamide, and 50 mM sodium butyrate were added to Triton lysis buffer.
# DDX3X AcK118 [1] = assay: DDX3X acetylation detection by western blot, CBP-HA transfected HEK293T; type: cell-based; conditions: 5 µM
# Procedure: as §3
# A549 cells [2] = assay: CellRox deep red assay for tBuOOH-induced ROS; conditions: NAC 500 ?M; sheet 4c; DMSO mean = 1
# Procedure: A549 cells were maintained in DMEM (Sigma) supplemented with 10% fetal bovine serum (Pan Biotech). […] The CellRox assay was performed according to the product guidelines (ThermoFisher). Briefly, cells were treated with lipoic acid, N-acetyl-cysteine (NAC), or vector control (DMSO) for 1 h, followed by a 2 h treatment with 200 µM tert-butyl hydroperoxide, and then stained with 5 µM CellRox Deep Red for 1 h. Cells were washed twice with FluoroBrite DMEM (ThermoFisher) supplemented with 10% FBS before imaging. CellRox Deep Red signal intensity was measured on a Leica DMI 6000 B epifluorescent microscope with a Cy5 filter set. […] Significance was calculated by ANOVA with a post hoc Dunnett’s multiple comparisons test against the DMSO control (GraphPad).
# A549 cells [3] = assay: CellRox deep red assay for ROS quantification (with or without arsenite); type: cell-based; conditions: sheet 4d
# [4] = tested on: HDACs (HDAC1, HDAC2, HDAC6); parameters: method as in earlier work; conditions: ref Bantscheff et al., Nat Biotech, 2011; Lechner et al., Nat Chem Bio, 2023; read-out: EC50 in comparable chemoproteomic competition assays; cited from earlier work
# DDX3X AcK118 [5] = conditions: 10 µM; cited from earlier work
# T1 sequence (O15379 whole entry): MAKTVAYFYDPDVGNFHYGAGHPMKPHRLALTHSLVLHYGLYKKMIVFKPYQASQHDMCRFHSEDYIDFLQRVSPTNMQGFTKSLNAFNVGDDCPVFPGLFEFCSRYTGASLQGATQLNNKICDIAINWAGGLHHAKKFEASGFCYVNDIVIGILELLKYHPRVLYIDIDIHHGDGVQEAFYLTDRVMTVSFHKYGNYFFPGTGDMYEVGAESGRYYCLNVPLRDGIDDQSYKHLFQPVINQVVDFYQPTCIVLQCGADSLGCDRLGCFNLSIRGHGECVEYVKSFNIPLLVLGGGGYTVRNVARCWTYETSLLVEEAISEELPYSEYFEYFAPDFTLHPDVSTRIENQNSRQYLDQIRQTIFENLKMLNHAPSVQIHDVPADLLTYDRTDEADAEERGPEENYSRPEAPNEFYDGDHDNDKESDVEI
# T1 sequence (Q9Y618 395-489 partner limits assumed): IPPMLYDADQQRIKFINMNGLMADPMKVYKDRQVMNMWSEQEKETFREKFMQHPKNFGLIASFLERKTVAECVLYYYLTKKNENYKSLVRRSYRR
compound,measurement,setting,value
"O=C(O)CCCCC(S)CCS (racemic) [RS LA reduced, (R/S)-dihydrolipoic acid]",EC50,HDAC3/NcoR2 complex,47.5 µM
same,"raw luminescence signal, HDAC1 inhibition","HDAC1; log10 M -3.30103, 3 technical replicates",10948 and 11336 and 10633
same,"raw luminescence signal, HDAC1 inhibition","HDAC1; log10 M -3.82945, 3 technical replicates",35128 and 33959 and 34884
same,"raw luminescence signal, HDAC1 inhibition","HDAC1; log10 M -4.35788, 3 technical replicates",100059 and 96489 and 102534
same,"raw luminescence signal, HDAC1 inhibition","HDAC1; log10 M -4.88629, 3 technical replicates",200567 and 200318 and 195985
same,"raw luminescence signal, HDAC1 inhibition","HDAC1; log10 M -5.41477, 3 technical replicates",315045 and 314071 and 307544
same,"raw luminescence signal, HDAC1 inhibition","HDAC1; log10 M -5.94309, 3 technical replicates",353287 and 345284 and 342473
same,"raw luminescence signal, HDAC1 inhibition","HDAC1; log10 M -6.47756, 3 technical replicates",372512 and 378178 and 378301
same,"raw luminescence signal, HDAC1 inhibition","HDAC1; log10 M -6.87615, 3 technical replicates",385390 and 377410 and 356944
same,EC50,HDAC1; read-out: log EC50 from dose-dependent HDAC inhibition curves (converted),15.1 µM
same,EC50,HDAC8,20.2 µM
same,EC50,HDAC6,2.42 µM
same,EC50,HDAC2,33.4 µM
O=C(NO)c1cnc(NC2(c3ccccc3)CC2)nc1 [ACY-738],α-Tubulin AcK40 acetylation level relative to control,α-Tubulin AcK40,6.5 fold
same,DDX3X AcK118 acetylation level relative to control,DDX3X AcK118 [1],3.0 fold
same,DDX3X AcK118 acetylation level relative to control,DDX3X AcK118 [1]; listed as ACY738,3 fold
"CC(=O)N[C@@H](CS)C(=O)O [NAC, N-acetyl-cysteine]","tBuOOH-induced ROS (CellRox), relative to DMSO, Mean",A549 cells [2],0.6999
same,"tBuOOH-induced ROS (CellRox), relative to DMSO, replicate values",A549 cells [2],0.7684 and 0.7006 and 0.6306
same,"ROS (CellRox), relative to DMSO -Ars., Mean",A549 cells [3]; NAC +Ars,0.6662
same,"ROS (CellRox), relative to DMSO -Ars., replicate values",A549 cells [3]; NAC +Ars,0.6371 and 0.672 and 0.6896
O=C(O)CCCc1ccccc1 [Phenylbutyric acid],EC50,[4],300 to 500 µM
CC(C)(C)OO [TBHP],"ROS (CellRox), relative to DMSO -Ars., Mean",A549 cells [3]; TBHP -Ars,8.0156
same,"ROS (CellRox), relative to DMSO -Ars., replicate values",A549 cells [3]; TBHP -Ars,8.277 and 8.688 and 7.082
CN1CCc2c(c3ccccc3n2Cc2ccc(C(=O)NO)cc2)C1 [Tubastatin A],DDX3X hyperacetylation,DDX3X AcK118 [5],2.6 fold
CCCC(CCC)C(=O)O [Valproic acid],EC50,[4],300 to 500 µM
